# Measurements taken from US12679878B2, “CRF2 receptor agonists and their use in therapy” (SANOFI, priority 2020, dated 2026).
# Read-outs that look alike come from different tables or passages of the source. Starred links: 1 amine or outer side, 2 acyl side, 3 side chain; linkers in the order of their positions; H or OH if unused. Non-standard residues stand in square brackets, D forms with d. Residues, ends and D or L forms follow the SMILES beside them. Groups on a side chain read outwards from the residue. *: point of attachment. C18 diacid = O=C(O)CCCCCCCCCCCCCCCCC(=O)*; γGlu = O=C(O)[C@H](CCC(=O)[*:2])N[*:1]; AEEA = NCCOCCOCC(=O)O; Aib = CC(C)(N)C(=O)O
# Tests used:
# CRF1R receptor = molecular target: T1, CRF1R receptor (Homo sapiens, UniProt P34998); experiment: cAMP activity at anti-target CRF1R, CRF1R-overexpression CHO cell line (Example 9); assay type: cell-based; conditions: CRF1R-overexpression CHO cell line; for EC50: 0% HSA; for Emax: read-out: Emax (%)
# T1 construct: host or cells: CHO-K1 clone 2
# T1 sequence (P34998 24-415): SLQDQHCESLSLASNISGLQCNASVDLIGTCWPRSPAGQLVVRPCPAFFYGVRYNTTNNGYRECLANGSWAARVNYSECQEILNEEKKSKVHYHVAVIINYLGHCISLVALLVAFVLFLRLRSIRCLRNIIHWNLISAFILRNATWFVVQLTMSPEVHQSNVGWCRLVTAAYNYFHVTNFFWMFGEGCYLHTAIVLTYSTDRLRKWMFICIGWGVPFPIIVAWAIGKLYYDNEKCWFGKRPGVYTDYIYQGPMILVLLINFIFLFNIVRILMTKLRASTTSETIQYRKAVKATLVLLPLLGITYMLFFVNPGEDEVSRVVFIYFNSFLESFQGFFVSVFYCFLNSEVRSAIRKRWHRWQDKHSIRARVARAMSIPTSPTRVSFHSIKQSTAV
# How it was run: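 Using thawed CRF1R-overexpressing CHO cells at 2000 per well, compound is applied for 30 min at RT in HBSS/HEPES buffer with IBMX. Cellular cAMP content is determined via HTRF, and percent activity is calculated against 1000 nM UCN2 defined as 100%.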
# [1] = Physical stability, dynamic light scattering assay (Example 15); assay type: physicochemical; conditions: for Apparent Rh [nm] 4 weeks / Scattering Intensity (I) [%] 4 weeks: 4 weeks at 40° C.
# How it was run: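 DLS at 837 nm, 150° angle, +25° C; Rh, scattering intensity and mass contribution measured at 0 weeks and after 4 weeks at 40° C. Rh and D compared at 1, 5 and 10 mg/ml as kD surrogate; separate measurements at 300 μM, purity-corrected.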
# human CRF2α receptor = molecular target: T2, human CRF2α receptor (Homo sapiens, UniProt Q13324); experiment: cAMP agonism at human CRF2 α receptor in TeloHEAC cells (Example 7); assay type: cell-based; conditions: cAMP HTRF, TeloHEAC cells stably expressing human CRF2 α
# T2 construct: expressed in transfected cells; host or cells: TeloHEAC
# T2 sequence (Q13324 1-411): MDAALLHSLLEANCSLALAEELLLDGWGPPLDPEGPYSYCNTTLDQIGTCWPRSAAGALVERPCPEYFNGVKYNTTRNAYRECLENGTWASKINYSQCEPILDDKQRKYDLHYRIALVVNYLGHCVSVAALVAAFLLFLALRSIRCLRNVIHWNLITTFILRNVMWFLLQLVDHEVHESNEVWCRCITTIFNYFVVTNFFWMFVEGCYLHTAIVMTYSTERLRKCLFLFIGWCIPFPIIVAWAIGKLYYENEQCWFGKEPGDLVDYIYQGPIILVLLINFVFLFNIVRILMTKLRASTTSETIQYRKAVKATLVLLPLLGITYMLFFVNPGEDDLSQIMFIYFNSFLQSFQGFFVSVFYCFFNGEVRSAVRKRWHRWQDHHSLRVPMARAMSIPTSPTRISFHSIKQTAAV
# How it was run: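 HTRF ratio 665/620 nm, read 1 h after lysis reagents, reports cAMP. Cells: thawed stocks, 2000/well, 30 min RT with compound in HBSS, 20 mM HEPES, 0 or 0.1% HSA, 2 mM IBMX. Activity normalised to UCN2 1000 nM = 100%; EC50 from half-maximal activation.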
# [2] = Buffer A (100 mM acetate, pH 4.5)
# [3] = Buffer D (20 mM phosphate, pH 7.4)
# [4] = 0% HSA, read-out: EC50 [nM], 0% HSA
# [5] = 0.1% HSA, read-out: EC50 [nM], 0.1% HSA
# [6] = Buffer B (100 mM acetate, pH 4.5, 2.7 mg/ml m-cresol)
# [7] = Buffer E (20 mM acetate, pH 4.5)
Structure (SMILES),EC50 (CRF1R receptor),Emax (CRF1R receptor),"Apparent Rh [nm] 0 weeks [1, 2]","Scattering Intensity (I) [%] 0 weeks [1, 2]","Apparent Rh [nm] 4 weeks [1, 2]","Scattering Intensity (I) [%] 4 weeks [1, 2]","Apparent Rh [nm] 0 weeks [1, 3]","Scattering Intensity (I) [%] 0 weeks [1, 3]","Apparent Rh [nm] 4 weeks [1, 3]","Scattering Intensity (I) [%] 4 weeks [1, 3]",EC50 (human CRF2α receptor; [4]),EC50 (human CRF2α receptor; [5]),"Apparent Rh [nm] 0 weeks [1, 6]","Scattering Intensity (I) [%] 0 weeks [1, 6]","Apparent Rh [nm] 4 weeks [1, 6]","Scattering Intensity (I) [%] 4 weeks [1, 6]","Apparent Rh [nm] 0 weeks [1, 7]","Scattering Intensity (I) [%] 0 weeks [1, 7]","Apparent Rh [nm] 4 weeks [1, 7]","Scattering Intensity (I) [%] 4 weeks [1, 7]"
CC[C@H](C)[C@H](N)C(=O)N[C@H](C(=O)N[C@@H](CC(C)C)C(=O)N[C@@H](CO)C(=O)N[C@@H](CC(C)C)C(=O)N[C@@H](CC(=O)O)C(=O)N[C@@H](C(=O)N1CCC[C@H]1C(=O)N[C@H](C(=O)N[C@@H](CCCCN)C(=O)N[C@@H](CC(C)C)C(=O)N[C@@H](CCCCNC(=O)COCCOCCNC(=O)COCCOCCNC(=O)CC[C@H](NC(=O)CCCCCCCCCCCCCCCCC(=O)O)C(=O)O)C(=O)N[C@@H](CCC(N)=O)C(=O)N[C@H](C(=O)N[C@@H](CC(C)C)C(=O)N[C@@H](CC(C)C)C(=O)N[C@@H](CCCCN)C(=O)N[C@@H](CCC(N)=O)C(=O)N[C@@H](CCC(=O)O)C(=O)N[C@@H](CCCNC(=N)N)C(=O)N[C@@H](CCC(N)=O)C(=O)N[C@@H](CCCCN)C(=O)N[C@@H](CCCCN)C(=O)NC(C)(C)C(=O)N[C@@H](CCCNC(=N)N)C(=O)N[C@@H](CCC(N)=O)C(=O)N[C@@H](CCCCN)C(=O)N[C@@H](C)C(=O)N[C@@H](CCC(=O)O)C(=O)N[C@@H](CCCCN)C(=O)N[C@@H](CC(N)=O)C(=O)N[C@@H](CCCCN)C(=O)N[C@@H](CCC(N)=O)C(=O)N[C@H](C(=O)N[C@@H](CC(C)C)C(=O)N[C@@H](C)C(=O)N[C@@H](CCC(N)=O)C(=O)N[C@H](C(N)=O)C(C)C)[C@@H](C)CC)[C@@H](C)CC)[C@@H](C)CC)C(C)C)C(C)C [compound 136] (H-IVLSLD[dV]PIKLK([AEEA-AEEA-γGlu-C18 diacid])QILLKQERQKK[Aib]RQKAEKNKQILAQV-NH2; N-terminus assumed),> 1000 nM,21.8%,2.75 ± 0.14 nm,98 ± 3%,2.70 ± 0.28 nm,97 ± 2%,2.40 ± 0.15 nm,98 ± 3%,2.48 ± 0.07 nm,98 ± 2%,0.05 nM,2.41 nM,–,–,–,–,–,–,–,–
CC[C@H](C)[C@H](N)C(=O)N[C@H](C(=O)N[C@@H](CC(C)C)C(=O)N[C@@H](CO)C(=O)N[C@@H](CC(C)C)C(=O)N[C@@H](CC(=O)O)C(=O)N[C@@H](C(=O)N1CCC[C@H]1C(=O)N[C@H](C(=O)N[C@@H](CCCCN)C(=O)N[C@@H](CC(C)C)C(=O)N[C@@H](CCCCNC(=O)COCCOCCNC(=O)COCCOCCNC(=O)CC[C@H](NC(=O)CCCCCCCCCCCCCCCCC(=O)O)C(=O)O)C(=O)N[C@@H](CCC(N)=O)C(=O)N[C@H](C(=O)N[C@@H](CC(C)C)C(=O)N[C@@H](CC(C)C)C(=O)N[C@@H](CCCCN)C(=O)N[C@@H](CCC(N)=O)C(=O)N[C@@H](CCC(=O)O)C(=O)N[C@@H](CCCNC(=N)N)C(=O)N[C@@H](CCC(N)=O)C(=O)N[C@@H](CCCCN)C(=O)N[C@@H](CCCCN)C(=O)N[C@@H](CCC(N)=O)C(=O)N[C@@H](CCCNC(=N)N)C(=O)N[C@@H](CCC(=O)O)C(=O)N[C@@H](CCC(N)=O)C(=O)N[C@@H](C)C(=O)N[C@@H](CCC(=O)O)C(=O)N[C@@H](CCCCN)C(=O)N[C@@H](CC(N)=O)C(=O)N[C@@H](CCCCN)C(=O)N[C@@H](CCC(N)=O)C(=O)N[C@H](C(=O)N[C@@H](CC(C)C)C(=O)N[C@@H](CCC(=O)O)C(=O)N[C@@H](CCC(N)=O)C(=O)N[C@H](C(N)=O)C(C)C)[C@@H](C)CC)[C@@H](C)CC)[C@@H](C)CC)C(C)C)C(C)C [compound 137] (H-IVLSLD[dV]PIKLK([AEEA-AEEA-γGlu-C18 diacid])QILLKQERQKKQREQAEKNKQILEQV-NH2; N-terminus assumed),> 1000 nM,22.5%,3.31 ± 0.15 nm,94 ± 1%,3.34 ± 0.25 nm,100 ± 0%,2.66 ± 0.13 nm,84 ± 6%,2.65 ± 0.11 nm,88 ± 9%,0.04 nM,1.78 nM,3.50 ± 0.03 nm,100 ± 0%,3.60 ± 0.10 nm,100 ± 0%,2.38 ± 0.13 nm,98 ± 2%,2.59 ± 0.07 nm,100 ± 0%
CC[C@H](C)[C@H](N)C(=O)N[C@H](C(=O)N[C@@H](CC(C)C)C(=O)N[C@@H](CO)C(=O)N[C@@H](CC(C)C)C(=O)N[C@@H](CC(=O)O)C(=O)N[C@@H](C(=O)N1CCC[C@H]1C(=O)N[C@H](C(=O)N[C@@H](CCCCN)C(=O)N[C@@H](CC(C)C)C(=O)N[C@@H](CCCCNC(=O)COCCOCCNC(=O)COCCOCCNC(=O)CC[C@H](NC(=O)CCCCCCCCCCCCCCCCC(=O)O)C(=O)O)C(=O)N[C@@H](CCC(N)=O)C(=O)N[C@H](C(=O)N[C@@H](CC(C)C)C(=O)N[C@@H](CC(C)C)C(=O)N[C@@H](CCCCN)C(=O)N[C@@H](CCC(N)=O)C(=O)N[C@@H](CCC(=O)O)C(=O)N[C@@H](CCCNC(=N)N)C(=O)N[C@@H](CCC(N)=O)C(=O)N[C@@H](CCCCN)C(=O)N[C@@H](CCCCN)C(=O)N[C@@H](CCC(N)=O)C(=O)N[C@@H](CCCNC(=N)N)C(=O)N[C@@H](CCC(N)=O)C(=O)N[C@@H](CCC(N)=O)C(=O)N[C@@H](C)C(=O)N[C@@H](CCC(=O)O)C(=O)N[C@@H](CCCCN)C(=O)N[C@@H](CC(N)=O)C(=O)N[C@@H](CCCCN)C(=O)N[C@@H](CCC(N)=O)C(=O)N[C@H](C(=O)N[C@@H](CC(C)C)C(=O)N[C@@H](C)C(=O)N[C@@H](CCC(N)=O)C(=O)N[C@H](C(N)=O)C(C)C)[C@@H](C)CC)[C@@H](C)CC)[C@@H](C)CC)C(C)C)C(C)C [compound 139] (H-IVLSLD[dV]PIKLK([AEEA-AEEA-γGlu-C18 diacid])QILLKQERQKKQRQQAEKNKQILAQV-NH2; N-terminus assumed),> 1000 nM,37.6%,3.04 ± 0.08 nm,98 ± 1%,3.13 ± 0.22 nm,95 ± 4%,2.38 ± 0.23 nm,96 ± 3%,2.56 ± 0.29 nm,100 ± 0%,0.03 nM,1.31 nM,2.94 ± 0.32 nm,96 ± 5%,3.11 ± 0.14 nm,93 ± 3%,–,–,–,–
